Laboratory results reported in patent publication US20210107886A1, “PREPARATION OF CYCLIC ACETALS FOR FUEL” (TRIAD NATIONAL SECURITY, LLC, priority 2019, published 2021).
Read-outs that look alike come from different tables or passages of the source.

Key:
[1] = Density (Anton Paar SVM 3001); type: physicochemical; settings: 25° C.
Description: (§1) All chemicals and reagent grade solvents were obtained from commercial vendors and were used as received. ^1H and ^13C NMR spectra were obtained at room temperature on a Bruker AV400 MHz spectrometer, with chemical shifts (6) referenced to the residual solvent signal (^1H and ^13C). GC/MS analysis was carried out using a Hewlett-Packard 6890 GC system equipped with a Hewlett-Packard 5973 mass selective detector. FT-IR measurements were collected on a Perkin Elmer Spectrum Two FT-IR, where a drop of compound was pressed between two KBr plates. FTIR shifts were: very strong (vs), strong (s), medium (m), and weak (w). Combustion calorimeter measurements were performed using an IKA C1 compact combustion calorimeter, the NHOC was calculated by taking into consideration the hydrogen content and subtracting from the gross heat of combustion. DSC measurements were performed using a Netzsch DCS 204 F1 Phoenix. Viscosity and density measurements were performed using an Anton Paar SVM 3001. Elemental analysis was performed by Atlantic Microlabs. YSI measurements were conducted at Yale University.
(§2) Two additional factors to consider for diesel fuel formulation are density and net heat of combustion (NHOC). Typically, for a chemical compound to be able to be blended with diesel, it should not decrease the density of the fuel mixture below 0.82 g mL-^1, as the energy content of the fuel brought into the engine is dependent on the density of the fuel.^17, 25 Compounds 1-5 maintained densities slightly higher than that of biodiesel, H1-H3, and petroleum diesel. A related metric is the NHOC, which is a measure of the energy contained in a given quantity of a compound. Additionally reported in Table 2 is the lower heating value (LHV) of compounds 1-5. The LHV of a fuel is defined as the amount of heat released by combusting a specified quantity (initially at 25° C.) and returning the temperature of the combustion products to 150° C., which assumes the latent heat of vaporization of water in the reaction products is not recovered.

[2] = Kinematic viscosity (Anton Paar SVM 3001); type: physicochemical; settings: 40° C.
Description: as §1
The physical properties of the five distinct dioxolanes obtained were analyzed to understand their potential as suitable fuel components.^4-5, 8, 16, 18-20 A tabulated summary of these properties are provided in Table 2. The first metric considered was viscosity. […] If a fuel's viscosity falls outside of the ASTM D 975 specification (>4 mm^2 s^−1), it often leads to poor atomization of the fuel, which results in poor combustion and a subsequent loss of power and decrease in fuel economy.^7 In this respect, compounds 1-5 could be used to thin biodiesel to meet standards for petroleum diesel.

[3] = Net heat of combustion (combustion calorimeter); type: physicochemical
Description: as §1, §2

Water solubility = type: physicochemical
[4] = Lower heating value (LHV); type: physicochemical
Description: as §2

Boiling point = type: physicochemical
Flash point = type: physicochemical
[5] = Cloud point of dioxolane blends with 7-component surrogate diesel; type: physicochemical
Description: The dioxolanes were blended in percentages of 10%, 20%, or 30% with a 7-component surrogate diesel.
The values range from −9.9° C. to −13.3° C. The numbers of the samples correspond with the dioxolanes as-referenced in FIG. 30. Cloud point is a quality specification for diesel fuels. This is an indicator of the tendency of a fuel to form wax crystals when cold. These crystals can clog the atomizer that injects fuel into the combustion chamber of a diesel engine. Cloud point specifications are a maximum temperature. A material with lower cloud point is more desirable.

[6] = 25° C.; taken from references; cited from earlier work
[7] = 40° C.; taken from references; cited from earlier work
[8] = taken from references; cited from earlier work
[9] = taken from references, cited from earlier work; for Freezing/MP: freezing point: first value of cell; for Freezing/MP: melting point: second value of cell
[10] = 10% dioxolane in 7-component surrogate diesel (surrogate alone −10.5 ° C.)
[11] = 20% dioxolane in 7-component surrogate diesel (surrogate alone −10.5 ° C.)
[12] = 30% dioxolane in 7-component surrogate diesel (surrogate alone −10.5 ° C.)

Row | SMILES | Density [1] | Viscosity [2] | NHOC (net heat of combustion) [3] | solubility (Water solubility) | LHV (lower heating value) [4] | Boiling Point (Boiling point) | Flash Point (Flash point) | Cloud point of blend [5, 10] | Cloud point of blend [5, 11] | Cloud point of blend [5, 12] | Density [6] | Viscosity [7] | NHOC (net heat of combustion) [8] | Freezing/MP: freezing point [9] | Freezing/MP: melting point [9]
1 | CCCCC(CC)C1OC(C)C(C)O1 (centres unmarked) [Compound 2, 2-(1-Ethylpentyl)-4,5-dimethyl-1,3-dioxolane] | 0.885 g/mL | 1.88 mm^2 s^−1 | 30.41 mJ/L | < 40 µg/mL | 34.36 mJ/kg | 184 °C | 58.3 °C | −10.3 °C | −10.8 °C | −12.5 °C |  |  |  |  | 
2 | CCCCCCCCCCCC1(C)OCC(C)O1 (centres unmarked) [H2, 2,4-dimethyl-2-undecyl-1,3-dioxolane] |  |  |  |  |  |  |  |  |  |  | 0.872 g/mL | 5.15 mm^2 s^−1 | 31.99 mJ/L | −48 °C | −14 °C
3 | CCCCCC1OC(C)C(C)O1 (centres unmarked) [Compound 4, 4,5-Dimethyl-2-pentyl-1,3-dioxolane] | 0.887 g/mL | 1.49 mm^2 s^−1 | 29.20 mJ/L | < 40 µg/mL | 32.92 mJ/kg | 177 °C | 69.5 °C | −10.1 °C | −10.8 °C | −10.4 °C |  |  |  |  | 
4 | CCCCCCCC1OC(C)C(C)O1 (centres unmarked) [Compound 5, 4,5-Dimethyl-2-heptyl-1,3-dioxolane] | 0.883 g/mL | 2.34 mm^2 s^−1 | 30.06 mJ/L | < 40 µg/mL | 34.04 mJ/kg | 188 °C | 79.5 °C | −9.9 °C | −10.8 °C | −11.6 °C |  |  |  |  | 
5 | CCCCCCCCCCCC1(C)OC(C)C(C)O1 (centres unmarked) [H1, 2,4,5-trimethyl-2-undecyl-1,3-dioxolane] |  |  |  |  |  |  |  |  |  |  | 0.868 g/mL | 4.44 mm^2 s^−1 | 31.99 mJ/L | −51 °C | −18 °C
6 | CCCCCCCCCCCC1(C)OCCO1 [H3, 2-methyl-2-undecyl-1,3-dioxolane] |  |  |  |  |  |  |  |  |  |  | 0.883 g/mL | 4.98 mm^2 s^−1 | 32.28 mJ/L | −25 °C | 0 °C
7 | CCCC1OC(C)C(C)O1 (centres unmarked) [Compound 3, 4,5-Dimethyl-2-propyl-1,3-dioxolane] | 0.894 g/mL | 0.94 mm^2 s^−1 | 27.67 mJ/L | < 40 µg/mL | 30.95 mJ/kg | 161 °C | 42.5 °C | −11.5 °C | −12 °C | −13.3 °C |  |  |  |  | 
8 | CCC(CC)C1OC(C)C(C)O1 (centres unmarked) [Compound 1, 2-(1-Ethylpropyl)-4,5-dimethyl-1,3-dioxolane] | 0.893 g/mL | 1.26 mm^2 s^−1 | 29.45 mJ/L | < 40 µg/mL | 32.98 mJ/kg | 174 °C | 54.4 °C | −10.3 °C | −10.8 °C | −10.8 °C |  |  |  |  | 
